In US11541132B2, “Radiolabeled compounds” (Hoffmann-La Roche Inc., priority 2017, dated 2023):

Assays:
[1] = molecular target: T1, native aSyn aggregates in A30P transgenic mouse brain sections (Homo sapiens, UniProt P37840, A30P); assay: aSyn in vitro displacement assay ([3H]Example-3 autoradiography); type: binding, mutant human aSyn gene); conditions: 1 μM compound; 3 nM [3H]Example-3; A30P transgenic mouse brain sections; read-out: PCT_INHIB A30P @ 1 μM (% displacement of [3H]Example-3)
T1 construct: from tissue; host or cells: brain sections (midbrain and pons as ROI) of A30P transgenic mice, line B6.D2-Tg(Thy1-SNCA*30P)31Pjk

[2] = molecular target: T2, native Aβ aggregates in human AD brain tissue sections (Homo sapiens, UniProt P05067); assay: Aβ in vitro displacement assay (selectivity counterscreen, [3H]Example 3 autoradiography); type: binding; conditions: 1 μM compound; 3 nM [3H]Example 3; human AD brain sections; read-out: sel. counterscreen PCT_INHIB AD @ 1 μM (% displacement of [3H]Example 3)
T2 construct: native Aβ aggregates in human AD brain tissue samples; from tissue; host or cells: human AD brain tissue sections
T2 sequence (P05067 672-713 limits assumed): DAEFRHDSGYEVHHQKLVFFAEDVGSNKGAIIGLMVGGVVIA

Compound | inhibition at 1 µM [1] | inhibition at 1 µM [2]
COc1ccc(C(=O)Nc2ccc(N3CCN(c4ccncn4)CC3)cc2)cc1 [Example 56, 4-Methoxy-N-{4-[4-(pyrimidin-4-yl)piperazin-1-yl]phenyl}benzamide] | 88% | 98%
COc1ccc(C(=O)Nc2ccc(N3CCN(c4ccc(C#N)cc4)CC3)cc2)cc1 [Example 57, N-[4-[4-(4-Cyanophenyl)piperazin-1-yl]phenyl]-4-methoxy-benzamide] | 102% | 101%
COc1ccc(C(=O)Nc2ccc(N3CCN(c4ccc(OC)nc4)CC3)cc2)cc1 [Example 58, 4-Methoxy-N-[4-[4-(6-methoxypyridin-3-yl)piperazin-1-yl]phenyl]benzamide] | 93% | 92%
COc1ccc(C(=O)Nc2cnc(N3CCN(c4ccccn4)CC3)nc2)cc1 [Example 59, 4-Methoxy-N-(2-(4-(pyridin-2-yl)piperazin-1-yl)pyrimidin-5-yl)benzamide] | 85% | 97%
COc1ccc(C(=O)Nc2cnc(N3CCN(c4ccccn4)CC3)nc2)c(F)c1 [Example 60, 2-Fluoro-4-methoxy-N-(2-(4-(pyridin-2-yl)piperazin-1-yl)pyrimidin-5-yl)benzamide] | 85% | 96%
O=C(Nc1cnc(N2CCN(c3ccccn3)CC2)nc1)c1ccccc1F [Example 61, 2-Fluoro-N-(2-(4-(pyridin-2-yl)piperazin-1-yl)pyrimidin-5-yl)benzamide] | 86% | 93%
CN(C)c1ccc(C(=O)Nc2cnc(N3CCN(c4ccccn4)CC3)nc2)cc1 [Example 62, 4-(Dimethylamino)-N-(2-(4-(pyridin-2-yl)piperazin-1-yl)pyrimidin-5-yl)benzamide] | 89% | 97%
O=C(Nc1cnc(N2CCN(c3ccccn3)CC2)nc1)c1ccc(N2CCOCC2)cc1 [Example 63, 4-Morpholino-N-(2-(4-(pyridin-2-yl)piperazin-1-yl)pyrimidin-5-yl)benzamide] | 95% | 94%
Cc1cccc(C(=O)Nc2cnc(N3CCN(c4ccccn4)CC3)nc2)c1 [Example 64, 3-Methyl-N-(2-(4-(pyridin-2-yl)piperazin-1-yl)pyrimidin-5-yl)benzamide] | 88% | 92%
COc1ccc(C(=O)Nc2ccc(N3CCN(c4cc(C#N)ccn4)CC3)cc2)cc1 [Example 65, N-[4-[4-(4-Cyano-2-pyridyl)piperazin-1-yl]phenyl]-4-methoxy-benzamide] | 100% | 99%
COc1ccc(C(=O)Nc2ccc(N3CCN(c4cccs4)CC3)cc2)cc1 [Example 66, 4-Methoxy-N-{4-[4-(thiophen-2-yl)piperazin-1-yl]phenyl}benzamide] | 104% | 103%
COc1ccc(C(=O)Nc2ccc(N3CCN(c4cccnc4OC)CC3)cc2)cc1 [Example 67, 4-Methoxy-N-{4-[4-(2-methoxypyridin-3-yl)piperazin-1-yl]phenyl}benzamide] | 94% | 88%
COc1ccc(C(=O)Nc2ccc(N3CCN(c4cccc(OC)n4)CC3)cc2)cc1 [Example 68, 4-Methoxy-N-{4-[4-(6-methoxypyridin-2-yl)piperazin-1-yl]phenyl}benzamide] | 96% | 90%
COc1ccc(C(=O)Nc2ccc(N3CCN(c4ccccc4OC)CC3)cc2)cc1 [Example 69, 4-Methoxy-N-{4-[4-(2-methoxyphenyl)piperazin-1-yl]phenyl}benzamide] | 89% | 86%
COc1ccc(C(=O)Nc2ccc(N3CCN(c4ccccc4C#N)CC3)cc2)cc1 [Example 70, N-{4-[4-(2-Cyanophenyl)piperazin-1-yl]phenyl}-4-methoxybenzamide] | 84% | 64%
COc1ccc(C(=O)Nc2ccc(N3CCN(c4ccccc4F)CC3)cc2)cc1 [Example 71, N-{4-[4-(2-Fluorophenyl)piperazin-1-yl]phenyl}-4-methoxybenzamide] | 101% | 100%
COc1ccc(C(=O)Nc2cnc(N3CCN(c4ccccn4)CC3)nc2)c(C)c1 [Example 72, 4-Methoxy-2-methyl-N-(2-(4-(pyridin-2-yl)piperazin-1-yl)pyrimidin-5-yl)benzamide] | 80% | 86%
CN1CCN(c2ccc(C(=O)Nc3cnc(N4CCN(c5ccccn5)CC4)nc3)cc2)CC1 [Example 73, 4-(4-Methylpiperazin-1-yl)-N-(2-(4-(pyridin-2-yl)piperazin-1-yl)pyrimidin-5-yl)benzamide] | 88% | 91%

Compound | inhibition at 1 µM [1] | inhibition at 1 µM [2]
Cc1ccc(C(=O)Nc2cnc(N3CCN(c4ccccn4)CC3)nc2)cc1 [Example 74, 4-Methyl-N-(2-(4-(pyridin-2-yl)piperazin-1-yl)pyrimidin-5-yl)benzamide] | 93% | 95%
Cc1ccc(C(=O)Nc2cnc(N3CCN(c4ccccn4)CC3)nc2)nc1 [Example 75, 5-Methyl-N-(2-(4-(pyridin-2-yl)piperazin-1-yl)pyrimidin-5-yl)picolinamide] | 95% | 95%
COc1ccc(C(=O)Nc2ccc(N3CCN(c4ccccn4)CC3)cn2)nc1 [Example 76, 5-Methoxy-N-(5-(4-(pyridin-2-yl)piperazin-1-yl)pyridin-2-yl)picolinamide] | 94% | 91%
COc1ccc(C(=O)Nc2ccc(N3CCN(c4cccnc4)CC3)cc2)nc1 [Example 77, 5-Methoxy-N-(4-(4-(pyridin-3-yl)piperazin-1-yl)phenyl)picolinamide] | 98% | 96%
COc1ccc(C(=O)Nc2ccc(N3CCN(c4ccccn4)CC3)cc2)nc1 [Example 78, 5-Methoxy-N-(4-(4-(pyridin-2-yl)piperazin-1-yl)phenyl)picolinamide] | 98% | 94%
COc1ccc(C(=O)Nc2cnc(N3CCN(c4ccccn4)CC3)nc2)nc1 [Example 79, 5-Methoxy-N-(2-(4-(pyridin-2-yl)piperazin-1-yl)pyrimidin-5-yl)picolinamide] | 95% | 93%
COc1ccc(C(=O)Nc2ccc(N3CCN(c4ccccn4)CC3)cn2)c(C)c1 [Example 80, 4-Methoxy-2-methyl-N-[5-(4-pyridin-2-ylpiperazin-1-yl)pyridin-2-yl]benzamide] | 90% | 94%
CN1CCN(c2ccc(C(=O)Nc3ccc(N4CCN(c5ccccn5)CC4)cn3)cc2)CC1 [Example 81, 4-(4-Methylpiperazin-1-yl)-N-[5-(4-pyridin-2-ylpiperazin-1-yl)pyridin-2-yl]benzamide] | 90% | 92%
COc1ccc(C(=O)Nc2ccc(N3CCN(c4cc(OC)ccn4)CC3)cc2)cc1 [Example 82, 4-Methoxy-N-[4-[4-(4-methoxy-2-pyridyl)piperazin-1-yl]phenyl]benzamide] | 91% | 106%
COc1ccc(C(=O)Nc2ccc(N3CCN(c4ccncc4C)CC3)cc2)cc1 [Example 83, Acetic acid; 4-Methoxy-N-[4-[4-(3-methyl-4-pyridyl)piperazin-1-yl]phenyl]benzamide] | 86% | 95%
COc1ccc(C(=O)Nc2cnc(N3CCN(c4ccccn4)CC3)cn2)c(F)c1 [Example 84, 2-Fluoro-4-methoxy-N-(5-(4-(pyridin-2-yl)piperazin-1-yl)pyrazin-2-yl)benzamide] | 88% | 100%
COc1ccc(C(=O)Nc2cnc(N3CCN(c4ccccn4)CC3)cn2)cc1 [Example 85, 4-Methoxy-N-(5-(4-(pyridin-2-yl)piperazin-1-yl)pyrazin-2-yl)benzamide] | 98% | 107%
CN(C)c1ccc(C(=O)Nc2cnc(N3CCN(c4ccccn4)CC3)cn2)cc1 [Example 86, 4-(Dimethylamino)-N-(5-(4-(pyridin-2-yl)piperazin-1-yl)pyrazin-2-yl)benzamide] | 95% | 100%
CN1CCN(c2ccc(C(=O)Nc3cnc(N4CCN(c5ccccn5)CC4)cn3)cc2)CC1 [Example 87, 4-(4-Methylpiperazin-1-yl)-N-(5-(4-(pyridin-2-yl)piperazin-1-yl)pyrazin-2-yl)benzamide] | 88% | 98%
O=C(Nc1cnc(N2CCN(c3ccccn3)CC2)cn1)c1ccc(N2CCOCC2)cc1 [Example 88, 4-Morpholino-N-(5-(4-(pyridin-2-yl)piperazin-1-yl)pyrazin-2-yl)benzamide] | 87% | 71%
Cc1ccc(C(=O)Nc2cnc(N3CCN(c4ccccn4)CC3)cn2)cc1 [Example 89, 4-Methyl-N-(5-(4-(pyridin-2-yl)piperazin-1-yl)pyrazin-2-yl)benzamide] | 85% | 88%
Cc1ccc(C(=O)Nc2cnc(N3CCN(c4ccccn4)CC3)cn2)nc1 [Example 90, 5-Methyl-N-(5-(4-(pyridin-2-yl)piperazin-1-yl)pyrazin-2-yl)picolinamide] | 85% | 74%
COc1cccc(C(=O)Nc2ccc(N3CCN(c4ccc(C#N)cn4)CC3)cc2)n1 [Example 91, N-(4-(4-(5-Cyanopyridin-2-yl)piperazin-1-yl)phenyl)-6-methoxypicolinamide] | 85% | 54%
